Results from patent US20070248996A1, “Modulators of beta-amyloid peptide aggregation comprising D-amino acids” (Paraecis Pharmaceuticals, Inc., priority 1995, published 2007).
Read-outs that look alike come from different tables or passages of the source. Square brackets hold non-standard residues; d marks the D form. Peptide text beside a SMILES is read from it. * marks the point of attachment. Benzoyl(4-OH) = O=C(c1ccc(O)cc1)*

Biological target: Aβ1-40 (Homo sapiens, UniProt P05067)
Assay type: biochemical
Set-up: ΔLag: unit not given here
Conditions: for ΔLag 5.0 μM / ΔLag 0.5 μM / ΔLag […]: Table VI; for ΔLag 5.0 μM: 5.0 μM test compound; for ΔLag 3 μM: 3 μM test compound; for ΔLag 4 μM: 4 μM test compound; for ΔLag 0.5 μM: 0.5 μM test compound; for ΔLag […]: […] test compound
Text: The nucleation assay is employed to determine the ability of test compounds to alter (e.g. inhibit) the early events in formation of β-AP fibers from monomeric β-AP. Characteristic of a nucleated polymerization mechanism, a lag time is observed prior to nucleation, after which the peptide rapidly forms fibers as reflected in a linear rise in turbidity. The time delay before polymerization of β-AP monomer can be quantified as well as the extent of formation of insoluble fiber by light scattering (turbidity). Polymerization reaches equilibrium when the maximum turbidity reaches a plateau The turbidity of a solution of natural β-AP in the absence or presence of various concentrations of a β-amyloid modulator compound is determined by measuring the apparent absorbance of the solution at 405 nm (A405 nm) over time. The threshold of sensitivity for the measurement of turbidity is in the range of 15-20 μM β-AP. […] This assay can be performed using stirring or shaking to accelerate polymerization, thereby increasing the speed of the assay. Moreover the assay can be adapted to a 96-well plate format to screen multiple compounds.
HFIP-solubilized peptide is sonicated in a waterbath sonicator for 5 min at highest setting, then evaporated to dryness under a stream of argon. The peptide film is resuspended in anhydrous dimethylsulfoxide (DMSO) at a concentration of 6.9 mg/ml (25× concentration), sonicated for 5 min as before, then filtered through a 0.2 micron nylon syringe filter (VWR cat. No.28196-050). Test compounds are dissolved in DMSO at a 100× concentration. […] Ten microliters of the mixture is then added to the bottom of a well of a Corning Costar ultra low binding 96-well plate (Coming Costar, Cambridge Mass.; cat. No. 2500). Ninety microliters of water is added to the well, the plate is shaken on a rotary shaken at a constant speed at room temperature for 30 seconds, an additional 100 μl of 2× PTL buffer (20 mM NaH2PO4, 300 mM NaCl, pH 7.4) is added to the well, the plate is reshaken for 30 seconds and a baseline (t=0) turbidity reading is taken by measuring the apparent absorbance at 405 nm using a Bio-Rad Model 450 Microplate Reader. The plate is then returned to the shaker and shaken continuously for 5 hours. Turbidity readings are taken at 15 minute intervals.
β-amyloid aggregation in the absence of any modulators results in enhanced turbidity of the natural β-AP solution (i.e., an increase in the apparent absorbance at 405 nm over time). […]

[1] = Table V, hydroxylated and oxygenated modifying groups, 5 μM test compound
[2] = Table IV, hydrophobic modifying groups, 5 μM test compound
[3] = Table I, 5 μM Aβ1-40, 2 μM test compound, ratio of lag time with compound to lag time of control
[4] = Table I, 5 μM Aβ1-40, 5 μM test compound, ratio of lag time to control
[5] = Table II, second series, different stock of Aβ1-40, 2 μM test compound
[6] = Table II, second series, different stock of Aβ1-40
[7] = Table II, second series, different stock of Aβ1-40, 5 μM test compound
[8] = Table III, modifying groups derived from bile acids, 5 μM test compound

Sequence of Aβ1-40 (P05067 672-711): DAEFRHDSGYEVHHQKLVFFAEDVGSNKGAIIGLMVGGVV

CC(C)C[C@@H](NC(=O)c1ccc(O)cc1)C(=O)N[C@@H](C(=O)N[C@H](Cc1ccc(O)cc1)C(=O)N[C@H](Cc1ccc(O)cc1)C(=O)N[C@H](C)C(N)=O)C(C)C [PPI-775, 4-Hydroxybenzoyl-d(LVYYA)-nh2] ({Benzoyl(4-OH)}-[dL][dV][dY][dY][dA]-NH2)
ΔLag (Table XI, 5 μM test compound): 1

(±)-Mandelyl-(±)-mandelyl-d(LVFFA)-nh2 [PPI-518]
ΔLag 5 μM [1]: 1.5

(±)-Mandelyl-d(AFFVL)-nh2 [PPI-584]
ΔLag 5 μM (Table IX, 5 μM test compound): 4.8

(±)-Mandelyl-d(LVFF)-nh2 [PPI-482 (isomer 1)]
ΔLag 5 μM [1]: 1.5

(±)-Mandelyl-d(LVFF)-nh2 [PPI-482 (isomer 2)]
ΔLag 5 μM [1]: 1.6

Ac-d(LFFFL)-nh2 [PPI-644]
ΔLag 5 μM (Table IX, 5 μM test compound): 2.1

Ac-d(LVFFA)-nh2 [PPI-501]
ΔLag 5 μM (Table IX, 5 μM test compound): 1.4

Acetyl-d(LV(IodoY)FA)-nh2 [PPI-506]
ΔLag 5.0 μM: 1.0

Acetyl-d(LVYFA)-nh2 [PPI-505]
ΔLag 5.0 μM: 1.0

Acetyl-d(VF)-PEA [PPI-495]
ΔLag 5 μM [2]: 1.0

Benzoylpropanoyl-d(LVFF)-nh2 [PPI-489]
ΔLag 5 μM [1]: 1.2

Butanoyl-d(LVFFA)-nh2 [PPI-525]
ΔLag 5 μM [2]: 1.0

CA-LVYFA-cooh [PPI-399]
ΔLag 2 μM [3]: 3.0
ΔLag 5 μM [4]: 6

CA-d(AFFVL)-cooh [PPI-454]
ΔLag 2 μM [3]: 4.0
ΔLag 5 μM [4]: >12

CA-d(LV(IY)FA)-oh [PPI-462]
ΔLag 2 μM [5]: 2.7
ΔLag 3 μM [6]: >2.7
ΔLag 4 μM [6]: >2.7
ΔLag 5 μM [7]: >2.7

CA-d(LVF(IY)A)-oh [PPI-463]
ΔLag 2 μM [5]: >2.7
ΔLag 3 μM [6]: >2.7
ΔLag 4 μM [6]: >2.7
ΔLag 5 μM [7]: >2.7

CA-d(LVYFA)-oh [PPI-455]
ΔLag 2 μM [5]: 1.8
ΔLag 3 μM [6]: 2.0
ΔLag 4 μM [6]: 2.3
ΔLag 5 μM [7]: >2.7

Chenodeoxycholyl-LVFFA-oh [PPI-521]
ΔLag 5 μM [8]: >2.3
ΔLag 5 μM (Table IX, 5 μM test compound): 3.6

Cholyl-LVFFA-oh [PPI-424]
ΔLag 5 μM [8]: >6.0

D-3-Phenyllactyl-d(AFFVL)-nh2 [PPI-607]
ΔLag 5 μM (Table IX, 5 μM test compound): 3.1

D-3-Phenyllactyl-d(FFFVL)-nh2 [PPI-635]
ΔLag 5 μM (Table IX, 5 μM test compound): 2.5

D-3-Phenyllactyl-d(FFVL)-nh2 [PPI-612]
ΔLag 5 μM (Table IX, 5 μM test compound): 2.1

DL-3-(4-Hydroxyphenyl)Lactyl-d(LVFFA)-nh2 [PPI-599]
ΔLag 5 μM (Table IX, 5 μM test compound): 1.4

Dihphenylacetyl-d(LVFF)-nh2 [PPI-484]
ΔLag 5 μM [2]: 1.3

Glycolyl-d(AFFLL)-nh2 [PPI-592]
ΔLag 5 μM (Table IX, 5 μM test compound): 1.8

Glycolyl-d(FFFVL)-nh2 [PPI-596]
ΔLag 5 μM (Table IX, 5 μM test compound): 3.6
ΔLag 5 μM [1]: 3.6

Glycolyl-d(LVFFA)-nh2 [PPI-535]
ΔLag 5 μM (Table IX, 5 μM test compound): 1.3
ΔLag 5 μM [1]: 1.4

H-d(A[homoPhe][homoPhe]VL)-nh2 [PPI-571]
ΔLag 5 μM (Table X, 5 μM test compound): >6

H-d(FFVL)-nh2 [PPI-602]
ΔLag 5 μM (Table X, 5 μM test compound): 1.6

H-d(LFFFL)-nh2 [PPI-638]
ΔLag 5 μM (Table X, 5 μM test compound): >6

H-d(LVFFL)-nh2 [PPI-655]
ΔLag 5 μM (Table X, 5 μM test compound): >6

Hydrocinnamoyl-d(FFFVL)-nh2 [PPI-636]
ΔLag 5 μM (Table IX, 5 μM test compound): 1.7

Hydrocinnamoyl-d(FFVL)-oh [PPI-619]
ΔLag 5 μM (Table IX, 5 μM test compound): 2.0

Hyodeoxycholyl-LVFFA-oh [PPI-520]
ΔLag 5 μM [8]: >2.3
ΔLag 5 μM (Table IX, 5 μM test compound): 1.5

Isobutanoyl-d(LVFFA)-nh2 [PPI-526]
ΔLag 5 μM [2]: 1.8

L-3-Phenyllactyl-d(AFFVL)-nh2 [PPI-608]
ΔLag 5 μM (Table IX, 5 μM test compound): >6

Lithocholyl-LVFFA-oh [PPI-425]
ΔLag 5 μM [8]: 1.4

Pepstatin A [PPI-516, reference compound]
ΔLag 5 μM [1]: 1.6

Phenylacetyl-d(LVFF)-nh2 [PPI-480]
ΔLag 5 μM [2]: 1.0

Triphenylacetyl-d(LVFF)-nh2 [PPI-485]
ΔLag 5 μM [2]: 2.7

Ursodeoxycholyl-LVFFA-oh [PPI-522]
ΔLag 5 μM [8]: >2.3
ΔLag 5 μM (Table IX, 5 μM test compound): 1.2

cholyl-D-Leu-D-Val-D-Phe-D-Phe-D-Ala-NH2 [PPI-457]
ΔLag 5 μM [4]: >10
ΔLag 5 μM (Table IX, 5 μM test compound): >6

cholyl-D-Leu-D-Val-D-Phe-phenethylamide [PPI-494]
ΔLag 2 μM [5]: 1.0
ΔLag 3 μM [6]: 1.3
ΔLag 4 μM [6]: 1.4
ΔLag 5 μM [7]: 1.4
ΔLag 5 μM [2]: 1.5
ΔLag 5 μM (Table IX, 5 μM test compound): 1.3

cholyl-Leu-Val-Phe-Phe-Ala-NH2 [PPI-382]
ΔLag 2 μM [3]: >10
ΔLag 5 μM [4]: >12

h-d(AAAAA)-nh2 [PPI-473]
ΔLag 3 μM [6]: 1.0
ΔLag 4 μM [6]: 1.0
ΔLag 5 μM [7]: 1.0

h-d(AFFFL)-nh2 [PPI-598]
ΔLag 0.5 μM: 1.3
ΔLag 5.0 μM: 6.3
ΔLag […]: 2.0
ΔLag 5 μM (Table X, 5 μM test compound): >6

h-d(AFFLL)-nh2 [PPI-577]
ΔLag 0.5 μM: 1.0
ΔLag 5.0 μM: >7.5
ΔLag […]: 1.3
ΔLag 5 μM (Table X, 5 μM test compound): >6

h-d(AFFVL)-nh2 [PPI-500]
ΔLag 0.5 μM: 1.0
ΔLag 5.0 μM: >6.0
ΔLag […]: 1.8

h-d(FFFFL)-nh2 [PPI-589]
ΔLag 0.5 μM: 1.5
ΔLag 5.0 μM: >7.5
ΔLag […]: 3.3
ΔLag 5 μM (Table X, 5 μM test compound): >6

h-d(FFFLV)-nh2 [PPI-533]
ΔLag 0.5 μM: 1.5
ΔLag 5.0 μM: >7.5
ΔLag […]: 3.8
ΔLag 5 μM (Table X, 5 μM test compound): >6

h-d(FFFVL)-nh2 [PPI-579]
ΔLag 0.5 μM: 1.8
ΔLag 5.0 μM: >7.5
ΔLag […]: 6.3
ΔLag 5 μM (Table X, 5 μM test compound): >6

h-d(LFFVL)-nh2 [PPI-578]
ΔLag 0.5 μM: 2.5
ΔLag 5.0 μM: >7.5
ΔLag […]: 4.8
ΔLag 5 μM (Table X, 5 μM test compound): 3.2

h-d(LV(IodoY)FA)-nh2 [PPI-504]
ΔLag 5.0 μM: 2.2
ΔLag 5 μM (Table X, 5 μM test compound): 1.4

h-d(LVFA)-oh [PPI-479]
ΔLag 2 μM [5]: 1.1
ΔLag 3 μM [6]: 0.9
ΔLag 4 μM [6]: 1.0
ΔLag 5 μM [7]: 1.1

h-d(LVFF)-nh2 [PPI-471]
ΔLag 2 μM [5]: 2.6
ΔLag 3 μM [6]: 2.6
ΔLag 4 μM [6]: 2.6
ΔLag 5 μM [7]: 2.4

h-d(LVYFA)-nh2 [PPI-503]
ΔLag 5.0 μM: 1.2

h-d(VF)-PEA [PPI-493]
ΔLag 2 μM [5]: 1.0
ΔLag 3 μM [6]: 1.0
ΔLag 4 μM [6]: 1.0
ΔLag 5 μM [7]: 1.9

h-d(VF)-PEA [PPI-497]
ΔLag 5 μM [2]: 1.0

h-d(VFF)-oh [PPI-502]
ΔLag 5 μM [2]: 1.0

trans-Cinnamoyl-d(LVFF)-nh2 [PPI-490]
ΔLag 5 μM [2]: 1.0
